BindingDB's records for doi:10.1021/acs.jmedchem.6b00788 (University of Pittsburgh, 2017)

Assay: Inhibition of TNFalpha-PLAP (unknown origin)

Structure (SMILES)	IC50 [nM]
COc1cc(O)c2c(c1)/C=C/C[C@H](O)[C@H](O)C(=O)/C(F)=C\C[C@H](C)OC2=O	36
COc1cc(O)c2c(c1)/C=C/C[C@H](O)[C@H](O)C(=O)/C=C(/C)C[C@H](C)OC2=O	> 10000
